Tests used:
DMM mouse model for OA = test: Cartilage degeneration scoring of safranin-O stained joint sections in DMM mouse model for OA; format: in vivo
Procedure: Histologic outcomes: 20 wks after DMM, mice are sacrificed, and OA assessed histologically by a blinded examiner scoring cartilage degeneration through Safranin-O stained sections, and scoring synovitis and osteophytes through H&E stained sections.
Treatment with pharmacologic agents. Beginning 24 hrs after DMM, mice (n=10 per experimental arm) are treated by injection or oral gavage for 12 wks with either vehicle, or one of the agents as detailed in Table 1.
Histologic analysis. Histologic analysis of mouse stifle joints occurs 20-wks after surgery. Cartilage degeneration is assessed through scoring of Safranin-O stained sections and synovitis and osteophyte formation assessed through scoring of H&E stained sections. Significance was assessed by unpaired 2-tailed Mann-Whitney U test, with *P<0.05, **P<0.01, ***P<0.001.
After 12 weeks of treatment, mice were sacrificed, and the stifle joints harvested for histologic analysis, and safranin-O stained joint tissue sections were scored by a blinded examiner for the degree of cartilage degeneration. […] Significance was assessed by unpaired 2-tailed Mann-Whitney U test, with *P<0.05, **P<0.01, ***P<0.001, N.S. non-significant.
After 12 weeks of treatment, mice were sacrificed, and the stifle joints harvested for histologic analysis, and safranin-O stained joint tissue sections were scored by a blinded examiner for the degree of cartilage degeneration. […] Significance was assessed by unpaired 2-tailed Mann-WhitneyU test, with *P<0.05, **P<0.01, ***P<0.001.
Mice were then sacrificed, and the stifle joints harvested for histologic analysis. (A) Safranin-O stained joint tissue sections were scored by a blinded examiner for the degree of cartilage degeneration. (B) Representative safranin-O stained sections from each group are presented. […] Significance was assessed by unpaired 2-tailed Mann-Whitney U test, with *P<0.05, **P<0.01, ***P<0.001.

[1] = in vivo; cited from earlier work
[2] = system: human OA synovial tissue organoid; test: Human OA synovial tissue organoid stimulation assay (qPCR); format: cell-based; settings: rupatadine 1 μM, fenofibrate 1 μM or both; 24 hr with human OA synovial fluid; vs vehicle
Procedure: Human OA synovium was obtained at the time of arthroplasty and cultured overnight in tissue culture medium with human OA synovial fluid.
The arthroplasty synovium was then washed with media, cut into approximately 2 mm pieces, and individual organoid pieces further stimulated for 24 hr with human OA synovial fluid in the presence of the test small molecule compounds and combinations including: vehicle control; rupatadine 1 μM; fenofibrate 1 μM; or rupatadine 1 μM+fenofibrate 1 μM. The organoids were then harvested, total RNA extracted, reverse transcription performed, followed by qPCR to quantitate levels of RNA encoding the inflammatory lipid PAF biosynthesis enzyme (Ipcat2) gene expression as well as PAF receptor (ptafr) gene expression.

CC(C)c1c(C(=O)Nc2ccccc2)c(-c2ccccc2)c(-c2ccc(F)cc2)n1CC[C@@H](O)C[C@@H](O)CC(=O)O [Atorvastatin]
prevention of OA (quantification of cartilage degeneration 20 wks post-DMM) (DMM mouse model for OA; C57BL/6J wild-type mice, atorvastatin 0.5 mg/kg for 12 wks following DMM vs vehicle, p=0.0513): does not prevent OA | development / severity of OA following DMM (DMM mouse model for OA; mice, dose not given at place): failure of atorvastatin to prevent OA

CC(C)(Oc1ccc(CCNC(=O)c2ccc(Cl)cc2)cc1)C(=O)O [Bezafibrate]
Bioavailability [1]: 100%

O=C1[C@H](CC[C@H](O)c2ccc(F)cc2)[C@@H](c2ccc(O)cc2)N1c1ccc(F)cc1 [Ezetimibe]
Bioavailability [1]: variable

Cc1ccc(C)c(OCCCC(C)(C)C(=O)O)c1 [Gemfibrozil]
Bioavailability [1]: 100%

CCc1ccc(CCOc2ccc(CC3SC(=O)NC3=O)cc2)nc1 (stereo not shown) [Pioglitazone]
Bioavailability [1]: 83%

Cc1cncc(CN2CCC(=C3c4ccc(Cl)cc4CCc4cccnc43)CC2)c1 [Rupatadine]
severity / development of OA (cartilage degeneration scores) (DMM mouse model for OA; C57Bl/6 mice, oral gavage from 1 week after DMM for 3 months, rupatadine 20 μg, fenofibrate 40 μg, or both): decreased the severity of OA | severity of OA-related cartilage degeneration following DMM (DMM mouse model for OA; WT mice, vs vehicle (combination also vs either drug alone), Example 1, dose not given at place): significantly less severe OA-related cartilage degeneration | PAF receptor (ptafr) gene expression [2]: decreased | inflammatory lipid PAF biosynthesis enzyme (Ipcat2) gene expression [2]: decreased

From patent US20250275951A1, “DRUGS TARGETING INFLAMMATION FOR THE TREATMENT OF OSTEOARTHRITIS AND OTHER INFLAMMATORY DISEASES” (The Board of Trustees of the Leland Stanford Junior …, priority 2020, published 2025)
